Results as given in patent publication US9840498B2, “Substituted quinazolin-4-one derivatives” (NOVARTIS AG, priority 2013, dated 2017).
One block for each molecule: values may come before it.

Tests used:
PI3K alpha = PI3K alpha (Homo sapiens (Human), UniProt P42336); assay: Biochemical assay for PI3Kalpha (Kinase-Glo format); conditions: enzymatic assay
Description: 1.1 Generation of Gene Constructs, Protein Expression and Purification
For the enzymatic assays, the preparation of PI3K gene constructs, protein expression and purification for HTS are described in WO2012/004299.
1.2 Biochemical Assays for PI3Kalpha, PI3Kbeta (Kinase-Glo Format)
The kinase reaction is performed in a final volume of 50 μl per well of a half area COSTAR, 96 well plate. The final concentrations of ATP and phosphatidyl inositol in the assay are 5 μM and 6 μg/mL, respectively. The reaction is started by the addition of PI3 kinase, e.g. PI3 kinase α.
The components of the assay are added per well as follows: • 10 μl test compound in 5% DMSO per well in […]. • Total activity is determined by addition 10 μl of 5% vol/vol DMSO in the first 4 wells of column 1 and the last 4 wells of column 12. • The background is determined by addition of 10 μM control compound to the last 4 wells of column 1 and the first 4 wells of column 12. • 2 mL ‘Assay mix’ are prepared per plate: • 1.912 mL of HEPES assay buffer • 8.33 μl of 3 mM stock of ATP giving a final concentration of 5 μM per well • 1 μl of [^33P]ATP on the activity date giving 0.05 μCi per well • 30 μl of 1 mg/mL PI stock giving a final concentration of 6 μg/mL per well • 5 μl of 1 M stock MgCl2 giving a final concentration of 1 mM per well • 20 μl of the assay mix are added per well. • 2 mL ‘Enzyme mix’ are prepared per plate (x* μl PI3 kinase p110α in 2 mL of kinase buffer). The ‘Enzyme mix’ is kept on ice during addition to the assay plates. * The volume of enzyme is dependent on the enzymatic activity of the batch in use. • 20 μl ‘Enzyme mix’ are added/well to start the reaction. • The plate is then incubated at room temperature for 90 minutes. • The reaction is terminated by the addition of 50 μl WGA-SPA bead (wheat germ agglutinin-coated Scintillation Proximity Assay beads) suspension per well. • The assay plate is sealed using TopSeal-S (heat seal for polystyrene microplates, PerkinElmer LAS [Deutschland] GmbH, Rodgau, Germany) and incubated at room temperature for at least 60 minutes. • The assay plate is then centrifuged at 1500 rpm for 2 minutes using the Jouan bench top centrifuge (Jouan Inc., Nantes, France). • The assay plate is counted using a Packard TopCount, each well being counted for 20 seconds.
In a more preferred assay, the kinase reaction is performed in a final volume of 10 μl per well of a low volume non-binding CORNING, 384 well black plate (Cat. No. #3676). The final concentrations of ATP and phosphatidyl inositol (PI) in the assay are 1 μM and 10 μg/mL, respectively. The reaction is started by the addition of ATP.
The components of the assay are added per well as follows: […]

[1] = molecular target: human phosphoinositide-3 kinase (PI3K) delta (Homo sapiens (Human), UniProt O00329); assay: PI3K-mediated Akt 1/2 (S473) phosphorylation in Rat-1 cells overexpressing PI3K delta; assay type: cell-based; conditions: cellular assay, p-AKT(Ser473), read-out: Cell PI3K delta IC50
human phosphoinositide-3 kinase (PI3K) delta, sequence (O00329 whole entry): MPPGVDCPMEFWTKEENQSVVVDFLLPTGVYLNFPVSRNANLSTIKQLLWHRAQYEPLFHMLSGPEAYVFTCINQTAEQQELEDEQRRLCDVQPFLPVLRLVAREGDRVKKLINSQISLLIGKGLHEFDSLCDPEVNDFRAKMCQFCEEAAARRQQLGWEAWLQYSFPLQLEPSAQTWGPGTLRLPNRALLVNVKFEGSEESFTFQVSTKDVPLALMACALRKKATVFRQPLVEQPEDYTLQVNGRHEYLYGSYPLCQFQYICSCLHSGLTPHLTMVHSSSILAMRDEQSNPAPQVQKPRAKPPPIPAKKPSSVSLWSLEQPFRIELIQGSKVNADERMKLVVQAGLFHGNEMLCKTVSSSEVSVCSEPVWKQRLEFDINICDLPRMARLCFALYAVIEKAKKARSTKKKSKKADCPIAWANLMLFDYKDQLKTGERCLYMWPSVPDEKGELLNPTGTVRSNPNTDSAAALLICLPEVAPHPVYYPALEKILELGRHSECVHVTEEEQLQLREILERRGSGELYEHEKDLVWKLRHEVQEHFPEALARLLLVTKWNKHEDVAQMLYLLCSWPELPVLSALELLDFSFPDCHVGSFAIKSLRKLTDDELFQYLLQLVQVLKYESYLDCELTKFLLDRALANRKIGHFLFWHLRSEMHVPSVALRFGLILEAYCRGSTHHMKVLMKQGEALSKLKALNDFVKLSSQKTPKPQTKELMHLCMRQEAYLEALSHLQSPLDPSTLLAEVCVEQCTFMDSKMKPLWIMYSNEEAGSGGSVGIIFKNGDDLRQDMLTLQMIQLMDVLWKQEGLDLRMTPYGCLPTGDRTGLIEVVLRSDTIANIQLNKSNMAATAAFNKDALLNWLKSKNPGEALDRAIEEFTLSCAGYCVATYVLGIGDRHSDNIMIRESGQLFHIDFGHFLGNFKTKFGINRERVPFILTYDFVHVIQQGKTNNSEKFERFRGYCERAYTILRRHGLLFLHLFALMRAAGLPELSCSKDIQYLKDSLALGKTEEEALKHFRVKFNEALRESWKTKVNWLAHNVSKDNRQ
human phosphoinositide-3 kinase (PI3K) delta, sequence (Q63787 whole entry partner): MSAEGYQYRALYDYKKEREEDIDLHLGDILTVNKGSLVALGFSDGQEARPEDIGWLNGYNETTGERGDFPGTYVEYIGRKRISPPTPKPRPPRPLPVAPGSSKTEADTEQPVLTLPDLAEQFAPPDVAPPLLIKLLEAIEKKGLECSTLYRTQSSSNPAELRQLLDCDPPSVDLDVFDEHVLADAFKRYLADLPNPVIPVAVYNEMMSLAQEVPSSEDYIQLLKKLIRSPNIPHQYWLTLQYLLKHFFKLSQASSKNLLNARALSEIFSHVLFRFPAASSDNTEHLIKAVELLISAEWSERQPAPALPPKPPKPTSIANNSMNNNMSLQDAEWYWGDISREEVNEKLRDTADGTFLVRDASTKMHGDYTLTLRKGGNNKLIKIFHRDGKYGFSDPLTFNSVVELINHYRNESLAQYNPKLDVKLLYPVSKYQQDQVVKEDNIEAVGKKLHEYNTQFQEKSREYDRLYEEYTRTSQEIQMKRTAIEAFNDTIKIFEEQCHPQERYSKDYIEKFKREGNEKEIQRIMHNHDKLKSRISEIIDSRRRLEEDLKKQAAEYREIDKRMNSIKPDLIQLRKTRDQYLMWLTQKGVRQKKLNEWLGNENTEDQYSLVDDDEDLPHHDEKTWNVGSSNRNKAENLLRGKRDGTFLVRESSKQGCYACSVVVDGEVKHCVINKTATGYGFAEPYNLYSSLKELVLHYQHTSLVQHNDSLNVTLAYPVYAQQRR
Description: 2.1 Phosphoinositide-3 kinase (PI3K)-Mediated Akt 1/2 (S473) Phosphorylation in Rat-1 Cells
Rat-1 cells stably overexpressing a myristoylated form of the catalytic subunit of human phosphoinositide-3 kinase (PI3K) alpha, beta or delta were plated in 384-well plates at a density of 7500 (PI3K alpha), 6200 (PI3K beta), or 4000 (PI3K delta) cells in 30 ul complete growth medium (Dulbecco's modified Eagle's medium (DMEM high glucose) supplemented with 10% (v/v) fetal bovine serum, 1% (v/v) MEM non essential amino acids, 10 mM HEPES, 2 mM L-glutamine, 10 μg/mL puromycin and 1% (v/v) Penicillin/Streptomycin) and were incubated at […]/5% CO2/95% humidity for 24 h. Compounds were diluted in 384-well compound plates (compound master plates), to obtain 8-point serial dilutions for 40 test compounds in 90% DMSO, as well as 4 reference compounds plus 16 high controls and 16 low (inhibited) controls. Predilution plates were prepared by dispensing pipetting 250 nl of compound solutions into 384-well polypropylen plates (daugther plates), using a Hummingwell nanoliter dispenser. Compounds were prediluted by the addition of 49.75 ul complete growth medium. 10 ul of prediluted compound solution were transferred to the cell plate using a 384-well pipettor, resulting in a final DMSO concentration of 0.11%. Cells were incubated for 1 h at […]/5% CO2/95% humidity. The supernatant was removed, the cells were lysed in 20 ul of lysis buffer for AlphaScreen® SureFire® detection.
For detection of p-AKT(Ser473), the SureFire® p-Akt 1/2 (Ser473) Assay Kit (PerkinElmer, U.S.A.) was used. 5 ul of cell lysate was transferred to 384-well low volume Proxiplates for detection using a 384-well pipettor. Addition of AlphaScreen® SureFire® reagents was done according to the manufacturer's protocol. First, 5 ul of reaction buffer plus activation buffer mix containing AlphaScreen® acceptor beads was added, the plate was sealed, and incubated on a plate shaker for 2 hours at room temperature. Second, 2 ul of dilution buffer containing AlphaScreen® donor beads was added, and the plate was incubated on plate shaker as above for a further 2 hours. The plate was read on an AlphaScreen® compatible plate reader, using standard AlphaScreen® settings. Alternatively, p-AKT(Ser473) was detected with the CisBio HTRF Assay Kit: As positive control, 0.9 mM of 1-(3-(trifluoromethyl)-4-(piperazin-1-yl)phenyl)-8-(6-methoxypyridin-3-yl)-3-methyl-1H-imidazo[4,5-c]quinolin-2(3H)-one maleic acid salt in 90% (v/v) DMSO was added to the compound master plate. For compound testing, the cells were seeded at a density of 4000 (Rat-1_PI3Kdelta), 8000 (Rat-1_PI3Kalpha), or 6500 (Rat-1_PI3Kbeta) cells in 30 ul complete growth medium into 384-well plates, with a plastic surface promoting the adhesion of cells and their growth (assay plates) and were grown at 37° C./5% CO2/90% humidity for 24 h. Some 10 ul of the compound predilutions from the daughter plate were then transferred to the cells. After treatment with compound for 1 h, medium was removed and cells were lysed by the addition of 20 ul lysis buffer supplemented with blocking buffer. Detection of p-AKT(Ser473) was performed with the HTRF pAKT (Ser473) assay kit according to the manufacturer's instructions using 16 ul of cell lysate in a total detection volume of 20 ul.

PI3K alpha, sequence (P42336 21-1068): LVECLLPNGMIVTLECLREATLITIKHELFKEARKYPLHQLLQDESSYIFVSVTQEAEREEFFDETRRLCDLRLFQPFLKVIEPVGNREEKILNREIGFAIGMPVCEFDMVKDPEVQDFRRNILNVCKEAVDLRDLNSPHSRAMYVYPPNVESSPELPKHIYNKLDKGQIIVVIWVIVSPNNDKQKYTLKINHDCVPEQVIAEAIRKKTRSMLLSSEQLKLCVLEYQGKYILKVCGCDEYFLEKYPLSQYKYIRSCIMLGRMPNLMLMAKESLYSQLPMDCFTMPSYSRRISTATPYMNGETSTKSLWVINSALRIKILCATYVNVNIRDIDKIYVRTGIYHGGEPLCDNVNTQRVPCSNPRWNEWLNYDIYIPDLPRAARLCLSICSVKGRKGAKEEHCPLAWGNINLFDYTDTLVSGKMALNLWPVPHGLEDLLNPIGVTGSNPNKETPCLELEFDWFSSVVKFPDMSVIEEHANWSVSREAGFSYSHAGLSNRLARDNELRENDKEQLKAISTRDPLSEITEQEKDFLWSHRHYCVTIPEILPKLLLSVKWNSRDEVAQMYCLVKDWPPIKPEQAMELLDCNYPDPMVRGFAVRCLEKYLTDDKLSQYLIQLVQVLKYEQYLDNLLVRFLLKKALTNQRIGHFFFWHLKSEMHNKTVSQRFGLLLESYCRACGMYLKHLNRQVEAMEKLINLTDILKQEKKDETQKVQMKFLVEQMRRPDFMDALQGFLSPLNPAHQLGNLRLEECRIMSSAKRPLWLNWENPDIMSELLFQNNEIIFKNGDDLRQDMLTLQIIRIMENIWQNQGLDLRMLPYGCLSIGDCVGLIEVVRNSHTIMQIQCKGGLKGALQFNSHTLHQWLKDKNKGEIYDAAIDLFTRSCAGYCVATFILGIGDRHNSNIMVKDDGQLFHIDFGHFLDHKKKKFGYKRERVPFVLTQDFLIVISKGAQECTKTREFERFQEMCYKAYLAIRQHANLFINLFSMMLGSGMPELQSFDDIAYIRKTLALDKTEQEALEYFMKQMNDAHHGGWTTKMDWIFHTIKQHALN
PI3K alpha, sequence (P27986 461-568 partner): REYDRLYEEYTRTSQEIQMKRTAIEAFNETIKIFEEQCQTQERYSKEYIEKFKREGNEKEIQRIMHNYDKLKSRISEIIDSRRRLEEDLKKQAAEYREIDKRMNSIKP

Compound: Cc1nc(N)nc(N2C[C@@H](O)C[C@H]2c2nc3ccc(F)c(-c4cnn(C)c4)c3c(=O)n2-c2ccccc2)c1C#N [Example 1, 2-Amino-4-((2S,4S)-2-(6-fluoro-5-(1-methyl-1H-pyrazol-4-yl)-4-oxo-3-phenyl-3,4-dihydroquinazolin-2-yl)-4-hydroxypyrrolidin-1-yl)-6-methylpyrimidine-5-carbonitrile]
IC50 (PI3K alpha): 74 nM
IC50 [1]: 3 nM

Compound: COc1ncc(-c2cccc3nc([C@@H]4CCCN4c4ncnc(N)c4C#N)n(-c4ccccc4)c(=O)c23)cn1 [Example 3, (S)-4-Amino-6-(2-(5-(2-methoxypyrimidin-5-yl)-4-oxo-3-phenyl-3,4-dihydroquinazolin-2-yl)pyrrolidin-1-yl)pyrimidine-5-carbonitrile]
IC50 (PI3K alpha): 1400 nM
IC50 [1]: 11 nM

Compound: COc1ncc(-c2cccc3nc([C@@H]4CCCN4c4nc(N)nc(C)c4C#N)n(-c4ccccc4)c(=O)c23)cn1 [Example 4, (S)-2-Amino-4-(2-(5-(2-methoxypyrimidin-5-yl)-4-oxo-3-phenyl-3,4-dihydroquinazolin-2-yl)pyrrolidin-1-yl)-6-methylpyrimidine-5-carbonitrile]
IC50 (PI3K alpha): 320 nM
IC50 [1]: < 3 nM

Compound: COc1ncc(-c2c(F)ccc3nc([C@@H]4C[C@H](O)CN4c4nc(N)nc(C)c4C#N)n(-c4ccccc4)c(=O)c23)cn1 [Example 7, 2-Amino-4-((2S,4S)-2-(6-fluoro-5-(2-methoxypyrimidin-5-yl)-4-oxo-3-phenyl-3,4-dihydroquinazolin-2-yl)-4-hydroxypyrrolidin-1-yl)-6-methylpyrimidine-5-carbonitrile]
IC50 (PI3K alpha): 210 nM
IC50 [1]: 9 nM

Compound: COc1ncc(-c2c(F)ccc3nc([C@@H]4C[C@H](O)CN4c4nc(N)nc(C)c4C#N)n(-c4ccccc4)c(=O)c23)s1 [Example 9, 2-Amino-4-((2S,4S)-2-(6-fluoro-5-(2-methoxythiazol-5-yl)-4-oxo-3-phenyl-3,4-dihydroquinazolin-2-yl)-4-hydroxypyrrolidin-1-yl)-6-methylpyrimidine-5-carbonitrile]
IC50 (PI3K alpha): 53 nM
IC50 [1]: < 3 nM

Compound: CO[C@H]1C[C@@H](c2nc3cccc(-c4cnn(C)c4)c3c(=O)n2-c2ccccc2)N(c2nc(N)nc(C)c2C#N)C1 [Example 10, 2-Amino-4-((2S,4S)-4-methoxy-2-(5-(1-methyl-1H-pyrazol-4-yl)-4-oxo-3-phenyl-3,4-dihydroquinazolin-2-yl)pyrrolidin-1-yl)-6-methylpyrimidine-5-carbonitrile]
IC50 (PI3K alpha): 1300 nM
IC50 [1]: 60 nM

Compound: CO[C@H]1C[C@@H](c2nc3cccc(-c4cnn(C)c4)c3c(=O)n2-c2ccccc2)N(c2nc(N)nc3[nH]cnc23)C1 [Example 11, 2-((2S,4S)-1-(2-Amino-9H-purin-6-yl)-4-methoxypyrrolidin-2-yl)-5-(1-methyl-1H-pyrazol-4-yl)-3-phenylquinazolin-4(3H)-one]
IC50 (PI3K alpha): 2300 nM
IC50 [1]: 660 nM

Compound: COc1ncc(-c2cccc3nc([C@@H]4C[C@H](OC)CN4c4nc(N)nc(C)c4C#N)n(-c4ccccc4)c(=O)c23)cn1 [Example 12, 2-Amino-4-((2S,4S)-4-methoxy-2-(5-(2-methoxypyrimidin-5-yl)-4-oxo-3-phenyl-3,4-dihydroquinazolin-2-yl)pyrrolidin-1-yl)-6-methylpyrimidine-5-carbonitrile]
IC50 (PI3K alpha): 1200 nM
IC50 [1]: 28 nM

Other lines, results leading:

IC50 (PI3K alpha): 1300 nM
IC50 [1]: 3 nM
Compound: Cn1cc(-c2cccc3nc([C@@H]4CCCN4c4ncnc(N)c4C#N)n(-c4ccccc4)c(=O)c23)cn1 [Example 2, (S)-4-Amino-6-(2-(5-(1-methyl-1H-pyrazol-4-yl)-4-oxo-3-phenyl-3,4-dihydroquinazolin-2-yl)pyrrolidin-1-yl)pyrimidine-5-carbonitrile]

IC50 (PI3K alpha): 230 nM
IC50 [1]: 7 nM
Compound: Cn1cc(-c2c(F)ccc3nc([C@@H]4CCCN4c4ncnc(N)c4C#N)n(-c4ccccc4)c(=O)c23)cn1 [Example 5, (S)-4-Amino-6-(2-(6-fluoro-5-(1-methyl-1H-pyrazol-4-yl)-4-oxo-3-phenyl-3,4-dihydroquinazolin-2-yl)pyrrolidin-1-yl)pyrimidine-5-carbonitrile]

IC50 (PI3K alpha): 130 nM
IC50 [1]: 5 nM
Compound: Cc1nc(N)nc(N2CCC[C@H]2c2nc3ccc(F)c(-c4cnn(C)c4)c3c(=O)n2-c2ccccc2)c1C#N [Example 6, (S)-2-Amino-4-(2-(6-fluoro-5-(1-methyl-1H-pyrazol-4-yl)-4-oxo-3-phenyl-3,4-dihydroquinazolin-2-yl)pyrrolidin-1-yl)-6-methylpyrimidine-5-carbonitrile]

IC50 (PI3K alpha): 1100 nM
IC50 [1]: 6 nM
Compound: Cn1cc(-c2c(F)ccc3nc([C@@H]4C[C@H](O)CN4c4ncnc(N)c4C#N)n(-c4ccccc4)c(=O)c23)cn1 [Example 8, 4-Amino-6-((2S,4S)-2-(6-fluoro-5-(1-methyl-1H-pyrazol-4-yl)-4-oxo-3-phenyl-3,4-dihydroquinazolin-2-yl)-4-hydroxypyrrolidin-1-yl) pyrimidine-5-carbonitrile]

IC50 (PI3K alpha): 260 nM
IC50 [1]: 12 nM
Compound: Cc1nc(N)nc(N2CCC[C@H]2c2nc3cccc(-c4cnn(C)c4)c3c(=O)n2-c2ccccc2)c1C#N [Example 13, (S)-2-Amino-4-methyl-6-(2-(5-(1-methyl-1H-pyrazol-4-yl)-4-oxo-3-phenyl-3,4-dihydroquinazolin-2-yl)pyrrolidin-1-yl)pyrimidine-5-carbonitrile]

IC50 (PI3K alpha): 920 nM
IC50 [1]: 8 nM
Compound: Cc1ccccc1-n1c([C@@H]2CCCN2c2ncnc(N)c2C#N)nc2cccc(-c3cnn(C)c3)c2c1=O [Example 14, (S)-4-Amino-6-(2-(5-(1-methyl-1H-pyrazol-4-yl)-4-oxo-3-(otolyl)-3,4-dihydroquinazolin-2-yl)pyrrolidin-1-yl)pyrimidine-5-carbonitrile]
